Target: tau (Homo sapiens, UniProt P10636)
Experiment: MCE Phenols Library screening, tau biosensor cell seeding assay (AvZ)
Assay type: cell-based
Settings: for Z repl 1 / Z Repl 2: Z score; for Z repl 1 / raw data 1: replicate 1; for Z Repl 2 / raw data 2: replicate 2; for AvZ (average z score of seeding, SDs from the mean level of seeding): 10 μM phenol in cell cultures, AD brain homogenate preincubated 16 hours, two biological replicates, positive = catalyzes seeding, negative = inhibits
[1] = average Z score of the two replicates, MCE Phenols Library screen
[2] = average puncta of the two replicates
[3] = average Z score of the two replicates, tau biosensor seeding, MCE Phenols Library screen
[4] = average Z score of the two replicates, tau seeding
[5] = average Z score of two replicates, Phenols Library screen

Chain of tau (P10636 623-695 limits assumed): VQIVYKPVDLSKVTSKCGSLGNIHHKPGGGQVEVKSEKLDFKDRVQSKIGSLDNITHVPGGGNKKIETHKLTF

Row | Molecule | Z repl 1 | Z Repl 2 | av Z [1] | av puncta [2] | raw data 1 (raw puncta) | raw data 2 (raw puncta) | AvZ (average z score of seeding, SDs from the mean level of seeding) | raw data 1 (puncta) | raw data 2 (puncta) | av Z [4] | av Z [5] | av puncta (average of raw data 1 and 2) | av Z [3]
1 | C/C=C/c1ccc(OC(C)=O)c(OC)c1 [Isoeugenol acetate] | -0.788 | 0.239 |  | 16103.3 | 16893.4 | 15313.2 | -0.275 |  |  |  |  |  | 
2 | O=C(O[C@H](Cc1ccc(O)c(O)c1)C(=O)O)C1=Cc2cc(O)c(O)cc2[C@H](c2ccc(O)c(O)c2)[C@H]1C(=O)OC(Cc1ccc(O)c(O)c1)C(=O)O (stereo in doubt) [Rabdosiin] | -0.457 | -0.234 | -0.346 | 15561.2 | 20858.2 | 10264.2 |  |  |  |  |  |  | 
3 | COc1c2c3c4c(c(OC)c(=O)c5c(O)cc(OC)c(c6c(OC)cc(O)c(c1=O)c63)c54)[C@@H](C(C)=O)[C@@](C)(O)C2 [Hypocrellin A] | -1.761 | -1.119 | -1.44 |  |  |  |  | 5209.06 | 813.974 |  |  | 3011.52 | 
4 | O=C(O)[C@H]1O[C@@H](Oc2c(-c3ccc(O)c(O)c3)oc3cc(O)cc(O)c3c2=O)[C@H](O)[C@@H](O)[C@@H]1O [Miquelianin] | 1.087 | 0.729 |  |  |  |  |  | 39402.1 | 20555.6 |  |  | 29978.8 | 0.908
5 | O=c1c(-c2ccc(O)cc2)coc2cc(O)cc(O)c12 [Genistein] | 0.361 | 0.231 |  |  |  |  |  | 30681.6 | 15235.1 | 0.296 |  | 22958.3 | 
6 | CC(C)=CCc1c2c(c(O)c3c1O[C@]14C(=C[C@@H]5C[C@H]1C(C)(C)O[C@@]4(C/C=C(/C)C(=O)O)C5=O)C3=O)C=CC(C)(C)O2 [Morellic acid] | -0.656 | -0.586 | -0.621 | 12492.8 |  |  |  | 18474.5 | 6511.03 |  |  |  | 
7 | Engeletin | -1.222 | -0.399 | -0.81 |  |  |  |  | 11684.3 | 8500.41 |  |  | 10092.3 | 
8 | CC(C)c1ccc2c(c1O)CC[C@H]1C3=C(CC[C@]21C)C(=O)OC3 [Triptophenolide] | 0.422 | 0.028 |  |  |  |  |  | 31418 | 13068.1 | 0.225 |  | 22243.1 | 
9 | O=c1ccc2cc(O)c(O)cc2o1 [Esculetin] | -0.338 | -0.78 | -0.559 | 13364.4 |  |  |  | 22288.3 | 4440.46 |  |  |  | 
10 | CC(C)=CCC/C(C)=C/Cc1c(O)c(CC=C(C)C)c2c(c1O)C(=O)C1=C[C@@H]3C[C@H]4C(C)(C)O[C@@](C/C=C(/C)C(=O)O)(C3=O)[C@@]14O2 [Gambogenic acid] |  |  | -1.587 |  |  |  |  |  |  |  |  |  | 
11 | C=CCc1ccc(O)c(-c2cc(CC=C)ccc2O)c1 [Magnolol] | 0.295 | 1.074 |  |  |  |  |  | 29891.7 | 24240.1 | 0.685 |  | 27065.9 | 
12 | Cc1cc(=O)oc2c(O)c(O)ccc12 [4-Methyldaphnetin] | -1.037 | -0.74 | -0.889 |  |  |  |  | 13895.3 | 4860.11 |  |  | 9377.72 | 
13 | Oc1cc(O)c2cc(O)c(-c3ccc(O)c(O)c3)[o+]c2c1.[Cl-] [Cyanidin (Chloride)] | -1.789 | -1.05 | -1.419 |  |  |  |  | 4876.54 | 1551.23 |  |  | 3213.88 | 
14 | COc1cc2c(O)c3c(c(-c4ccc5c(c4)OCO5)c2cc1OC)C(=O)OC3 [Diphyllin] | -0.334 | -0.918 | -0.626 | 12650.9 |  |  |  | 22335.7 | 2966.05 |  |  |  | 
15 | Isoliquiritin apioside | 0.567 | -0.451 |  |  |  |  |  | 33153.4 | 7948.29 |  | 0.058 | 20550.8 | 
16 | COc1cc(O)c2c(=O)c(-c3ccc(O)cc3)coc2c1 [Prunetin] | 3.008 | 2.297 |  |  |  |  |  | 62461.3 | 37293.6 |  |  | 49877.5 | 2.652
17 | O=C1c2c(O)cc(O)cc2O[C@H](c2cc(O)c(O)c(O)c2)[C@H]1O [Dihydromyricetin] | -1.346 | -0.885 | -1.115 |  |  |  |  | 10190.2 | 3319.03 |  |  |  | 
18 | O=c1oc2cc(O)ccc2c2oc3cc(O)ccc3c12 [Coumestrol] | -0.018 | -0.542 | -0.28 | 16558.4 | 26137.6 | 6979.18 |  |  |  |  |  |  | 
19 | Cc1cc(O)c2c(=O)c3c(O)cc(O)c4c5c(O)cc(O)c6c(=O)c7c(O)cc(C)c8c1c2c(c34)c(c78)c65 [Hypericin] | -1.344 | -0.424 | -0.884 |  |  |  |  | 10216.3 | 8238.56 |  |  | 9227.43 | 
20 | COc1cc(-c2oc3cc(O)cc(O)c3c(=O)c2O[C@@H]2O[C@H](CO[C@@H]3O[C@@H](C)[C@H](O)[C@@H](O)[C@H]3O)[C@@H](O)[C@H](O)[C@H]2O)ccc1O [Narcissin] | 0.249 | -0.653 | -0.202 | 17563.5 | 29338.6 | 5788.5 |  |  |  |  |  |  | 

The next lines start with results.

Row | Z repl 1 | Z Repl 2 | av Z [1] | av puncta [2] | raw data 1 (raw puncta) | raw data 2 (raw puncta) | AvZ (average z score of seeding, SDs from the mean level of seeding) | raw data 1 (puncta) | raw data 2 (puncta) | av Z [4] | av Z [5] | Molecule | av puncta (average of raw data 1 and 2) | av Z [3]
21 | -0.702 | 0.126 | -0.288 | 16013.9 | 17917.5 | 14110.3 |  |  |  |  |  | CC(=O)c1cc2c(CO)cc(O)cc2oc1=O [Armillarisin A] |  | 
22 | -0.457 | -0.762 |  | 12741.3 |  |  | -0.61 | 20857.9 | 4624.75 |  |  | COC(=O)Cc1ccc(O)cc1 [Methyl 4-hydroxyphenylacetate] |  | 
23 | -0.797 | -0.047 | -0.422 | 14520.5 | 16779.4 | 12261.6 |  |  |  |  |  | COc1cc(O)c2c(c1)O[C@H](c1ccccc1)CC2=O [Pinostrobin] |  | 
24 | 0.174 | -0.844 | -0.335 | 16096.8 | 28442.1 | 3751.47 |  |  |  |  |  | O=c1c(O[C@@H]2O[C@H](CO)[C@@H](O)[C@H](O)[C@H]2O)c(-c2ccc(O)c(O)c2)oc2cc(O)cc(O)c12 [Isoquercetin] |  | 
25 | -0.874 | -0.481 | -0.677 |  |  |  |  | 15857.3 | 7628.39 |  |  | Gigantol |  | 
26 | -1.04 | -0.216 | -0.628 | 12158.4 |  |  |  | 13862 | 10454.8 |  |  | O=C(O)CC(O)(CC(=O)OCc1ccc(O[C@@H]2O[C@H](CO)[C@@H](O)[C@H](O)[C@H]2O)cc1)C(=O)O (some centres unmarked) [Parishin E] |  | 
27 | 0.279 | -0.269 |  |  |  |  | 0.005 | 29696.2 | 9887.95 |  |  | N[C@@H](Cc1c[nH]c2ccc(O)cc12)C(=O)O [L-5-Hydroxytryptophan] | 19792.1 | 
28 | -0.665 | 0.333 |  |  |  |  |  | 18360 | 16322.6 |  | -0.166 | OC[C@H]1O[C@@H](Oc2ccc(O)cc2)[C@H](O)[C@@H](O)[C@@H]1O [Arbutin] | 17341.3 | 
29 | -0.046 | 0.369 |  |  |  |  |  | 25794.8 | 16704.1 | 0.161 |  | O=C(/C=C/c1ccc(O)cc1)c1ccc(O[C@@H]2O[C@H](CO)[C@@H](O)[C@H](O)[C@H]2O)cc1O [Neoisoliquiritin] | 21249.5 | 
30 | 0.23 | -0.492 |  |  |  |  |  | 29105.9 | 7514.37 |  | -0.131 | C[C@@H]1O[C@@H](OC[C@H]2O[C@@H](OCCc3ccc(O)c(O)c3)[C@H](O)[C@@H](O)[C@@H]2OC(=O)/C=C/c2ccc(O)c(O)c2)[C@H](O)[C@H](O)[C@H]1O [Forsythiaside A] | 18310.1 | 
31 | 0.131 | -0.067 |  |  |  |  |  | 27927.2 | 12048 |  | 0.032 | O=C1C[C@@H](c2ccc(O[C@@H]3O[C@H](CO)[C@@H](O)[C@H](O)[C@H]3O)cc2)Oc2cc(O)ccc21 [Liquiritin] | 19987.6 | 
32 | -0.712 | -0.064 | -0.388 | 14937.3 | 17796.3 | 12078.3 |  |  |  |  |  | O=C1c2cc(CO)cc(O)c2C(=O)c2c(O[C@@H]3O[C@H](CO)[C@@H](O)[C@H](O)[C@H]3O)cccc21 [Aloe-emodin-8-O-?-D-glucopyranoside] |  | 
33 | 0.006 | 0.639 |  |  |  |  |  | 26418.8 | 19589.9 | 0.322 |  | C[C@]12CC[C@@H]3c4ccc(O)cc4CC[C@H]3[C@@H]1C[C@@H](O)[C@@H]2O [Estriol] | 23004.4 | 
34 | 0.447 | -0.597 |  |  |  |  |  | 31709.7 | 6384.95 |  | -0.075 | Oc1ccc([C@H]2COc3cc(O)ccc3C2)cc1 [(-)-(S)-Equol] | 19047.3 | 
